In US12612387B2, “RAS inhibitors and methods of using the same” (Jazz Pharmaceuticals Ireland Limited, priority 2020, dated 2026):

Legend:
[1] = target: T1, K-RAS G12C (Homo sapiens, UniProt P01116, G12C); experiment: Compound depletion assay, K-RAS G12C; type: binding; conditions: G12C protein 20 μM, compound 8 μM, 25° C.
T1 construct: His tag; purchased Stratech
Method: (§1) Compound Depletion Assay Method
(§2) Lyophilized human K-RAS (12 Cys) protein (His tag) and human K-RAS (12 Asp) protein (His tag) were purchased from Stratech and reconstituted at 30 μM in water. The protein concentration of K-RAS G12C and K-RAS G12D was adjusted to 20 μM in K-RAS Assay Buffer (20 mM HEPES pH 7.5, 150 mM NaCl, 1 mM MgCl2). A 49 μl aliquot of protein solution was transferred to 1.5 ml eppendorfs and incubated at room temperature for 10 minutes. A 1 μl aliquot of compound solution in DMSO was added to the protein solutions in the 1.5 ml eppendorfs to initiate the reaction, with a final assay compound concentration of 8 μM. Reactions were agitated at 25° C., 700 rpm. At each time point (0, 30, 180, 360, 1440 minutes), 10 μl of the reaction mixture was removed, added to 30 μl quench solution (0.3% formic acid, 75 nM propranolol in acetonitrile) to stop the reaction and stored at 4° C. Once all reactions were quenched, the samples were centrifuged at 16000 g for 10 minutes to pellet the protein and salts. A 10 μl aliquot of supernatant containing compound was diluted in 50:50 acetonitrile:H2O in a 96 well plate. The plates were heat sealed and the samples analysed by LC-MS/MS to determine the concentration of compound remaining in the samples. To determine the reaction progress, the compound signal was normalized to the internal standard signal (propranolol). The decrease in free compound concentration is shown as a percentage over time, with the […] at time zero fixed at one hundred percent. Compound is assumed to be completely depleted when no longer detectable with a double blank sample as reference.

[2] = target: T2, K-RAS G12D (Homo sapiens, UniProt P01116, G12D); experiment: Compound depletion assay, K-RAS G12D; type: binding; conditions: G12D protein 20 μM, compound 8 μM, 25° C.
T2 construct: His tag; purchased Stratech
T2 sequence (P01116 1-188 isoform P01116-2 G12D): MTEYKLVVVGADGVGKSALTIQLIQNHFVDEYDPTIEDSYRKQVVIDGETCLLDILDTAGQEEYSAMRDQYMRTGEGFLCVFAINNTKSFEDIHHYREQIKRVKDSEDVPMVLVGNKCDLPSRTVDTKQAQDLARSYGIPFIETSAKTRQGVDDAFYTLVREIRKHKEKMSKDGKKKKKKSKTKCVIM
Method: as §1, §2

T1 sequence (P01116 1-188 isoform P01116-2 G12C): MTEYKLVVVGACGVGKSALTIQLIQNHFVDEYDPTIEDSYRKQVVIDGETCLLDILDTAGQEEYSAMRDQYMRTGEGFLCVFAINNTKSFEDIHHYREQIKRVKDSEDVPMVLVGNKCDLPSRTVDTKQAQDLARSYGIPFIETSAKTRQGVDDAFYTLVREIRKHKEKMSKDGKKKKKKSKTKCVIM

Row | SMILES | 30 min Category (compound remaining at timepoint) [1] | 3 hr Category (compound remaining at timepoint) [1] | 6 hr Category (compound remaining at timepoint) [1] | 30 min Category (compound remaining at timepoint) [2] | 3 hr Category (compound remaining at timepoint) [2] | 6 hr Category (compound remaining at timepoint) [2] | 24 hr Category (compound remaining at timepoint) [1] | 24 hr Category (compound remaining at timepoint) [2]
1 | C=CC(=O)N1CCN(c2cc(C(=O)NCc3ccccc3)nc(OC[C@@H]3CCCN3C)n2)CC1 [Example 14, N-benzyl-2-[[(2S)-1-methylpyrrolidin-2-yl]methoxy]-6-(4-prop-2-enoylpiperazin-1-yl)pyrimidine-4-carboxamide] |  | A (≥70% compound remaining at timepoint) |  |  | A (≥70% compound remaining at timepoint) |  | A (≥70% compound remaining at timepoint) | A (≥70% compound remaining at timepoint)
2 | C=CC(=O)N1CCN(c2cc(C(=O)N3c4ccccc4CCC3C)nc(OC[C@@H]3CCCN3C)n2)CC1 (stereo partly drawn) [Example 15, 1-[4-[6-(2-methyl-3,4-dihydro-2H-quinoline-1-carbonyl)-2-[[(2S)-1-methylpyrrolidin-2-yl]methoxy]pyrimidin-4-yl]piperazin-1-yl]prop-2-en-1-one] |  | A (≥70% compound remaining at timepoint) |  |  | A (≥70% compound remaining at timepoint) |  | A (≥70% compound remaining at timepoint) | A (≥70% compound remaining at timepoint)
3 | C=CC(=O)N1CCN(c2cc(C(=O)Nc3cccc4ccccc34)nc(-c3cnn(C)c3)n2)CC1 [Example 10, 2-(1-methylpyrazol-4-yl)-N-(1-naphthyl)-6-(4-prop-2-enoylpiperazin-1-yl)pyrimidine-4-carboxamide] |  | A (≥70% compound remaining at timepoint) |  |  | A (≥70% compound remaining at timepoint) |  | A (≥70% compound remaining at timepoint) | A (≥70% compound remaining at timepoint)
4 | C=CC(=O)N1CCN(c2cc(C(=O)Nc3cccc4ccccc34)nc(OC[C@@H]3CCCN3C)n2)C[C@@H]1CC#N [Example 02, 6-[(3S)-3-(cyanomethyl)-4-prop-2-enoyl-piperazin-1-yl]-2-[[(2S)-1-methylpyrrolidin-2-yl]methoxy]-N-(1-naphthyl)pyrimidine-4-carboxamide] |  | B (30%-70% compound remaining at timepoint) |  |  | A (≥70% compound remaining at timepoint) |  | B (30%-70% compound remaining at timepoint) | A (≥70% compound remaining at timepoint)
5 | C=CC(=O)N1CCN(c2cc(C(=O)Nc3cccc4ccccc34)nc(OCCN3CCOCC3)n2)CC1 [Example 07, 2-(2-morpholinoethoxy)-N-(1-naphthyl)-6-(4-prop-2-enoylpiperazin-1-yl)pyrimidine-4-carboxamide] |  | A (≥70% compound remaining at timepoint) |  |  | A (≥70% compound remaining at timepoint) |  | A (≥70% compound remaining at timepoint) | A (≥70% compound remaining at timepoint)
6 | C=CC(=O)N1CCN(c2cc(C(=O)Nc3cc(O)cc4ccccc34)nc(NCCN3CCOCC3)n2)C[C@@H]1CC#N [Example 28, 6-[(3S)-3-(cyanomethyl)-4-prop-2-enoyl-piperazin-1-yl]-N-(3-hydroxy-1-naphthyl)-2-(2-morpholinoethylamino)pyrimidine-4-carboxamide] | A (≥70% compound remaining at timepoint) | A (≥70% compound remaining at timepoint) | B (30%-70% compound remaining at timepoint) | A (≥70% compound remaining at timepoint) | A (≥70% compound remaining at timepoint) | A (≥70% compound remaining at timepoint) |  | 

Now from value to compound:

Row | 30 min Category (compound remaining at timepoint) [1] | 3 hr Category (compound remaining at timepoint) [1] | 6 hr Category (compound remaining at timepoint) [1] | 30 min Category (compound remaining at timepoint) [2] | 3 hr Category (compound remaining at timepoint) [2] | 6 hr Category (compound remaining at timepoint) [2] | 24 hr Category (compound remaining at timepoint) [1] | 24 hr Category (compound remaining at timepoint) [2] | SMILES
7 | A (≥70% compound remaining at timepoint) | A (≥70% compound remaining at timepoint) | A (≥70% compound remaining at timepoint) | A (≥70% compound remaining at timepoint) | A (≥70% compound remaining at timepoint) | A (≥70% compound remaining at timepoint) |  |  | C=CC(=O)N1CCN(c2cc(C(=O)Nc3cc(O)cc4ccccc34)nc(Cc3ccccc3)n2)C[C@@H]1CC#N [Example 40, 2-benzyl-6-[(3S)-3-(cyanomethyl)-4-prop-2-enoyl-piperazin-1-yl]-N-(3-hydroxy-1-naphthyl)pyrimidine-4-carboxamide]
8 |  | A (≥70% compound remaining at timepoint) |  |  | A (≥70% compound remaining at timepoint) |  | A (≥70% compound remaining at timepoint) | A (≥70% compound remaining at timepoint) | C=CC(=O)N1CCN(c2cc(C(=O)N3CCCc4cccc(C)c43)nc(OC[C@@H]3CCCN3C)n2)CC1 [Example 17, 1-[4-[6-(8-methyl-3,4-dihydro-2H-quinoline-1-carbonyl)-2-[[(2S)-1-methylpyrrolidin-2-yl]methoxy]pyrimidin-4-yl]piperazin-1-yl]prop-2-en-1-one]
9 |  | A (≥70% compound remaining at timepoint) |  |  | A (≥70% compound remaining at timepoint) |  | A (≥70% compound remaining at timepoint) | A (≥70% compound remaining at timepoint) | C=CC(=O)N1CCN(c2cc(C(=O)Nc3cccc4ccccc34)nc(N(C)CCN(C)C)n2)CC1 [Example 21, 2-[2-(dimethylamino)ethyl-methyl-amino]-N-(1-naphthyl)-6-(4-prop-2-enoylpiperazin-1-yl)pyrimidine-4-carboxamide]
10 |  | A (≥70% compound remaining at timepoint) |  |  | A (≥70% compound remaining at timepoint) |  | A (≥70% compound remaining at timepoint) | A (≥70% compound remaining at timepoint) | C=CC(=O)N1CCN(c2cc(C(=O)Nc3cccc4ccccc34)nc(N3CCN(C)CC3)n2)CC1 [Example 20, 2-(4-methylpiperazin-1-yl)-N-(1-naphthyl)-6-(4-prop-2-enoylpiperazin-1-yl)pyrimidine-4-carboxamide]
11 | C (≤30% compound remaining at timepoint) | C (≤30% compound remaining at timepoint) | C (≤30% compound remaining at timepoint) | A (≥70% compound remaining at timepoint) | A (≥70% compound remaining at timepoint) | A (≥70% compound remaining at timepoint) |  |  | C=CC(=O)N1CCN(c2cc(C(=O)Nc3cc(O)cc4ccccc34)nc(OCC3CCCCN3C)n2)C[C@@H]1CC#N (stereo partly drawn) [Example 48, 6-[(3S)-3-(cyanomethyl)-4-prop-2-enoyl-piperazin-1-yl]-N-(3-hydroxy-1-naphthyl)-2-[(1-methyl-2-piperidyl)methoxy]pyrimidine-4-carboxamide]
